According to paper PMC3971658 (The Journal of General Physiology, 2014):
Marks after values point to notes of the source that are not given here. Where no end group is shown, it is not given here.

What was measured:
Format in all cases: cell-based
[1] = tested on: c-Src / human Cav2.3c channel and GABABR
[2] = tested on: c-Src / human Cav2.1 channel and GABABR
Human Cav2.1 (Q1856E) = conditions: read-out: IBa inhibition; 50 µM
Human Cav2.1 (L1852T) = conditions: read-out: IBa inhibition; 50 µM
Human Cav2.3d (Y1765F) = conditions: read-out: IBa inhibition; 50 µM
Human Cav2.3d (Y1761F) = conditions: 50 µM
Human Cav2.3c (Y1761F) = conditions: 50 µM

For “pp60c-Src peptide: phosphorylated synthetic pp60c-Src peptide (521–533) (DYFTSTEPQYQPG; also: phosphorylated, site not given here; UniProt P12931 521-533, looked up, fragment)”, the “effect of pp60c-Src peptide on c-Vc1.1 and baclofen inhibition of IBa” value [1] was “The effect of K295R/Y527F c-Src was recapitulated” and the “baclofen inhibition of IBa with wild-type c-Src overexpression or pp60c-Src peptide” value [2] was “did not affect baclofen inhibition of IBa”.
Work on `NCC(CC(=O)O)c1ccc(Cl)cc1` (stereo not shown) [Baclofen, baclofen] yielded an inhibition (Human Cav2.1 (Q1856E)) of 47.9%, an inhibition (Human Cav2.1 (L1852T)) of 50.6% and an inhibition (Human Cav2.3d (Y1765F)) of 28.9%. For the same compound, the IBa inhibition (Human Cav2.3d (Y1761F)) was 21.9 ± 1.8 (11) ^c % and the IBa inhibition (Human Cav2.3c (Y1761F)) was 14.6 ± 1.8 (8) ^c %.
